Measurements as given in PMC5665762, “Phase 1 study of veliparib with carboplatin and weekly paclitaxel in Japanese patients with newly diagnosed ovarian cancer” (Cancer Science, 2017).

Key:
[1] = test system: Japanese patients with newly diagnosed ovarian cancer; assay: Phase 1 safety/tolerability: treatment-emergent adverse events, DLT, MTD, RP2D
Procedure: This was a phase 1, open‐label, multicenter, dose‐escalation study to evaluate the tolerability, safety, PK and preliminary efficacy of oral veliparib in combination with carboplatin and weekly paclitaxel in Japanese patients with ovarian cancer. Patients were assigned to treatment with veliparib at either 100 mg (dose level 1 [DL1]) or 150 mg (DL2) b.i.d. on days 1–21 of a 21‐day cycle. […] After completion of cycle 1, subsequent cycles were not begun until the patient's ANC was ≥1500/mm^3 and the platelet count ≥100 000/mm^3. Patients with ANC 1000–1499/mm^3 or platelet count 75 000–99 000/mm^3 (or both) could proceed to the next cycle of therapy with a predefined dose modification (Table S1). On day 8 or 15 of each cycle, another dose modification guideline was applied (Table S2). The patient's participation in the study was discontinued upon the third occurrence of hematologic toxicity that required dose modification per protocol. Treatment could be postponed for up to 21 days because of toxicity; longer toxicity‐related delay led to study discontinuation. Reduction of carboplatin and paclitaxel doses was permitted based on the toxicity observed (Table S3), which could necessitate discontinuation of either agent. At the investigator's discretion, patients who discontinued veliparib were […] to discontinue the study but could continue to receive carboplatin and paclitaxel as standard of care. The trial was conducted in accordance with good clinical practice, the International Conference on Harmonization guidelines, and the 1964 Declaration of Helsinki and its later amendments; written informed consent was obtained from all patients before study enrollment.
Dose escalation proceeded according to a 3 + 3 design to determine dose‐limiting toxicities (DLT), the maximum tolerated dose (MTD) and the RP2D. A minimum of 3 patients were enrolled at DL1. If none of these patients experienced a DLT, 3 more patients would be enrolled at DL2. If 1 or 2 patients experienced a DLT at DL1, 3 more patients would be enrolled at the same dose level. If ≤2 of 6 patients experienced a DLT, dose escalation would proceed to DL2. If ≥3 patients experienced a DLT, dose escalation would be stopped, with the following exceptions: (i) if 3 of 6 patients at DL1 experienced DLT, 3 more patients would enter the DL and the cohort be expanded to 9 patients, depending on a review of the specific DLT observed and discussion with the investigators; and (ii) if 3 of 9 patients at DL1 experienced DLT, escalation to DL2 would proceed, but if >3 of 9 patients experienced DLT, then dose escalation would stop.
Dose‐limiting toxicities were determined based on events that occurred during the DLT evaluation period from day 1 of cycle 1 through pre‐dosing on day 1 of cycle 2. A patient was considered to be evaluable for DLT assessment if they had completed cycle 1 with the assigned regimen or had prematurely discontinued cycle 1 or experienced an adverse event (AE) related to veliparib. AE that occurred after the DLT evaluation period were considered in dose‐escalation decisions and tolerability assessment. The MTD was defined as the highest dose level at which ≤2 of 6 or ≤3 of 9 patients experienced a DLT. The RP2D was determined on the basis of assessment of the observed toxicities, the MTD, the overall safety profile of the regimen, and the PK of veliparib. In the event that the MTD was not reached, the RP2D was to be defined on the basis of safety and PK data and would not be higher than the maximum administered dose. Any of the following events that were considered to have a reasonable possibility of being related to the administration of veliparib were defined as DLT: grade 4 neutropenia lasting more than 7 days; grade 4 thrombocytopenia; febrile neutropenia; any grade ≥3 nonhematologic toxicities except nausea, vomiting and diarrhea; and transient metabolic toxicities such as glucose changes, hypokalemia or hypophosphatemia.

[2] = Plasma pharmacokinetics on day 1 of cycle 1 (noncompartmental); set-up: AUC(0-inf): dose or concentration left out as unconfirmed
Procedure: (§1) During the screening visit, a complete medical history (including a detailed oncology history) was collected. Study visits occurred on days 1, 8 and 15 of cycle 1 and each subsequent cycle; patients also attended for a final visit and a 30‐day follow‐up visit. AE monitoring was performed at each visit; most visits also included a physical examination and ECOG performance status evaluation. Toxicities were graded according to the NCI Common Terminology Criteria for Adverse Events version 4.03. For the determination of veliparib, carboplatin and paclitaxel PK, plasma samples were collected at multiple time points within 24 h of the first morning dose of veliparib on day 1 of cycle 1. The PK of carboplatin and paclitaxel were evaluated only with veliparib co‐administration. Values of the PK parameters of veliparib, carboplatin and paclitaxel, including the maximum observed plasma concentration (C max), time to C max (T max) and AUC, were determined by using noncompartmental methods. In addition to tumor assessment at baseline, tumor response was assessed by using the Response Evaluation Criteria In Solid Tumors (RECIST) version 1.113 every 9 weeks from day 1 of cycle 1 and at the final visit. The tumor marker cancer antigen 125 (CA‐125) was evaluated on day 1 of each cycle and at the final visit.

[3] = test system: target lesions, ovarian cancer; assay: Tumor response by RECIST version 1.1; type: in vivo, Japanese patients
Procedure: as §1

CA‐125 = assay: Tumor marker CA-125 response (Gynecologic Cancer InterGroup definition); type: in vivo, Japanese patients
Procedure: as §1

[4] = test system: non‐small cell lung cancer; set-up: method as in PMID 26433581; settings: veliparib with carboplatin/paclitaxel, Japanese NSCLC patients, no more than 1 prior line of treatment; cited from earlier work
[5] = Total (both veliparib doses) + carboplatin/paclitaxel, N = 9, All grades
[6] = Total (both veliparib doses) + carboplatin/paclitaxel, N = 9, Grade 3 or 4
[7] = all 9 patients, regardless of relation to veliparib
[8] = veliparib 100 mg BID + carboplatin/paclitaxel, n = 3, All grades
[9] = veliparib 150 mg BID + carboplatin/paclitaxel, n = 6, All grades
[10] = veliparib dose 100 mg, day 1 of cycle 1, N 3, mean ± SD
[11] = veliparib dose 150 mg, day 1 of cycle 1, N 6, mean ± SD

SMILES: C[C@]1(c2nc3c(C(N)=O)cccc3[nH]2)CCCN1 [Veliparib]
- Nail disorder, TEAE [1, 5]: 2 (22) n (%)
- Nausea, TEAE [1, 5]: 6 (67) n (%)
- Neutropenia (including neutrophil count decreased), TEAE [1, 5]: 9 (100) n (%)
- Peripheral sensory neuropathy (including neuropathy peripheral), TEAE [1, 5]: 7 (78) n (%)
- Rash, TEAE [1, 5]: 2 (22) n (%)
- Stomatitis, TEAE [1, 5]: 2 (22) n (%)
- Thrombocytopenia (including platelet count decreased), TEAE [1, 5]: 5 (56) n (%)
- Vomiting, TEAE [1, 5]: 4 (44) n (%)
- Alopecia, TEAE [1, 6]: 0 n (%)
- Anemia, TEAE [1, 6]: 5 (56) n (%)
- Any AE, TEAE [1, 6]: 7 (78) n (%)
- Arthralgia, TEAE [1, 6]: 0 n (%)
- Constipation, TEAE [1, 6]: 0 n (%)
- Decreased appetite, TEAE [1, 6]: 0 n (%)
- Dry skin, TEAE [1, 6]: 0 n (%)
- Dysgeusia, TEAE [1, 6]: 0 n (%)
- Leukopenia (including white blood cell count decreased), TEAE [1, 6]: 4 (44) n (%)
- Malaise, TEAE [1, 6]: 0 n (%)
- Nail disorder, TEAE [1, 6]: 0 n (%)
- Nasopharyngitis, TEAE [1, 6]: 0 n (%)
- Nausea, TEAE [1, 6]: 0 n (%)
- Neutropenia (including neutrophil count decreased), TEAE [1, 6]: 7 (78) n (%)
- Peripheral sensory neuropathy (including neuropathy peripheral), TEAE [1, 6]: 0 n (%)
- Rash, TEAE [1, 6]: 0 n (%)
- Stomatitis, TEAE [1, 6]: 0 n (%)
- Vomiting, TEAE [1, 6]: 0 n (%)
- AE that led to death ([1]; all 9 patients): no AE that led to death
- alopecia, TEAE of any grade [1, 7]: 89%
- anemia, TEAE of any grade [1, 7]: 67%
- anemia, grade 3 or 4 TEAE [1, 7]: 56%
- malaise, TEAE of any grade [1, 7]: 67%
- nausea, TEAE of any grade [1, 7]: 67%
- neutropenia, TEAE of any grade [1, 7]: 100%
- neutropenia, grade 3 or 4 TEAE ([1]; female, human, in vivo): 78%
- peripheral sensory neuropathy, TEAE of any grade ([1]; female, human, in vivo): 78%
- recommended phase 2 dose (RP2D) ([1]; in combination with carboplatin and weekly paclitaxel, determined on safety and PK data): 150 mg b.i.d.
- dose‐limiting toxicities (DLT) ([1]; in vivo): No DLT were observed at any dose level
- veliparib dose reduction ([1]; in vivo): No patient needed a veliparib dose reduction
- veliparib discontinued because of a TEAE ([1]; overall, 6 of 9 patients): 67%
- Alopecia, TEAE [1, 8]: 3 (100) n (%)
- Anemia, TEAE [1, 8]: 2 (67) n (%)
- Alopecia, TEAE [1, 9]: 5 (83) n (%)
- Anemia, TEAE [1, 9]: 4 (67) n (%)
- maximum tolerated dose (MTD) of the regimen ([1]; veliparib up to 150 mg b.i.d. with carboplatin and weekly paclitaxel): not reached
- PK interaction between veliparib and carboplatin or paclitaxel ([2]; cross‐study comparison): no PK interaction
- AUC0–8/dose [2, 10]: 37.2 ± 4.37 ng·h/mL/mg
- C max/dose [2, 10]: 9.73 ± 1.63 ng/mL/mg
- AUC0–8/dose [2, 11]: 36.7 ± 8.10 ng·h/mL/mg
- C max/dose [2, 11]: 7.19 ± 1.16 ng/mL/mg
- objective response rate ([3]; 5 assessed patients, veliparib plus carboplatin and paclitaxel): 100%
- partial response ([3]; both cohorts, of 5 assessed patients): 4 patients
- median best percentage change from baseline in the sum of target lesions ([3]; overall, range −100.00% to −50.00%): −53.51%
- partial response ([3]; veliparib 100 mg b.i.d.): 1 patients
- complete response ([3]; veliparib 100 mg b.i.d. cohort, of 5 assessed patients): One patient had a complete response
- median best percentage change from baseline in the sum of target lesions ([3]; veliparib 100 mg b.i.d. cohort, range −100.00% to −53.51%): −76.75%
- partial response ([3]; veliparib 150 mg b.i.d.): 3 patients
- median best percentage change from baseline in the sum of target lesions ([3]; veliparib 150 mg b.i.d. cohort, range −90.29% to −50.00%): −51.57%
- CA‐125 response (Gynecologic Cancer InterGroup definition) (CA‐125; 8 of 9 patients): 89%
- median best percentage change from baseline in CA‐125 (CA‐125; overall, range −99.79% to −34.96%): −89.33%
- median best percentage change from baseline in CA‐125 (CA‐125; veliparib 100 mg b.i.d. cohort, range −97.31% to −65.25%): −94.24%
- median best percentage change from baseline in CA‐125 (CA‐125; veliparib 150 mg b.i.d. cohort, range −99.79% to −34.96%): −84.87%
- objective response rate [4]: 55%

SMILES: N.N.O=C([O-])C1(C(=O)[O-])CCC1.[Pt+2] [carboplatin]
- patients needing ≥1 carboplatin dose reduction ([1]; 7 of 9, beginning at cycle 2, due to hematologic toxicities): 78%
- C max ([2]; carboplatin measured as total platinum, AUC 6 mg/mL•min i.v. day 1 with veliparib, mean (SD)): 23.3 (4.28) μg/mL
- AUC from time zero to infinity (AUC∞) ([2]; carboplatin measured as total platinum, i.v. day 1 with veliparib, mean (SD)): 5.30 (0.491) mg•min/mL

SMILES: CC(=O)O[C@H]1C(=O)[C@@]2(C)[C@H]([C@H](OC(=O)c3ccccc3)[C@]3(O)C[C@H](OC(=O)[C@H](O)[C@@H](NC(=O)c4ccccc4)c4ccccc4)C(C)=C1C3(C)C)[C@]1(OC(C)=O)CO[C@@H]1C[C@@H]2O [paclitaxel]
- AUC(0-inf) ([2]; female, human, in vivo): 5320 ng·h/mL
- Cmax ([2]; female, human, in vivo): 3300 ng/mL
